What all share (experiment): Growth inhibition GI50 in vitro (CCK8/MTT, 72 h)
Holding throughout (type): cell-based, human

One experiment deals with H1975 (EGFR L858R/T790M). The note with it: Homo sapiens, NCI-H1975; EGFR mutant cell line; range of GI50; read-out: GI50 H1975.
The subject of another experiment is HCC827 (EGFR dE746-A750). Particulars: Homo sapiens, HCC827; EGFR mutant cell line; range of GI50; read-out: GI50 HCC827.
In another experiment the test system is PC-9 (EGFR dE746-A750). Particulars: Homo sapiens; EGFR mutant cell line; range of GI50; read-out: GI50 PC-9.
Experiment [1] relates to PC-9ER (EGFR delE746-A750/T790M). The note with it: Homo sapiens, PC-9/ER; EGFR mutant cell line; range of GI50; read-out: GI50 PC9ER.
The subject of another experiment is N87 (HER2 Amp). The note with it: Homo sapiens; HER2 positive cell line; range of GI50; read-out: GI50 N87.
A further experiment has as its system AU565 (Her2 amp). The note with it: Homo sapiens, AU565; HER2 positive cell line; range of GI50; read-out: GI50 AU-565.
Another experiment relates to SK-BR-3 (Her2 amp). Particulars: Homo sapiens, SK-BR-3; HER2 positive cell line; range of GI50; read-out: GI50 SK-BR-3.
Experiment [2] deals with A431 (EGFR WT, amplification and high expression). Particulars: Homo sapiens, A-431; EGFR wild type cell line; range of GI50; read-out: GI50 A431.
A further experiment has as its system A549 (EGFR WT). Particulars: Homo sapiens, A549; EGFR wild type cell line; range of GI50; read-out: GI50 A549.
Experiment [3] deals with H1299 (EGFR wt, Nras Q61K). Particulars: Homo sapiens, NCI-H1299; EGFR wild type cell line; range of GI50; read-out: GI50 H1299.
The test system of experiment [4] is H460 (EGFR wt, Kras G61H). The note with it: Homo sapiens, NCI-H460; EGFR wild type cell line; range of GI50; read-out: GI50 H460.

We go through five compounds from US10342796B2, “Acrylanilide derivative, preparation method, and applications thereof in pharmacy” (Ancureall Pharmaceutical (Shanghai) Co., Ltd., priority 2015, dated 2019).

Molecules are shown by their SMILES.

As to `C=CC(=O)Nc1cc(Nc2ncnc(Nc3cccc(Cl)c3F)n2)c(OC)cc1N(C)CCN(C)C` [Compound 110, N-(5-(4-(3-chloro-2-fluoro-phenylamino)-[1,3,5]triazin-2-ylamino)-2-((2-dimethylamino-ethyl)-methyl-amino)-4-methoxyl-phenyl)-acrylamide], the GI50 (as a rule, the concentration at which growth is held to half of that of the control) is 0.01 to 0.1 µM in the experiment with H1975 (EGFR L858R/T790M); < 0.01 µM with HCC827 (EGFR dE746-A750); < 0.01 µM with PC-9 (EGFR dE746-A750); < 0.01 µM in [1]; < 0.01 µM with N87 (HER2 Amp); 0.01 to 0.1 µM with AU565 (Her2 amp). The GI50 in the experiment with SK-BR-3 (Her2 amp) was 0.01 to 0.1 µM; in experiment [2] it was 0.1 to 1 µM; in the experiment on A549 (EGFR WT), > 1 µM; in experiment [3] it was > 1 µM; in experiment [4] it was > 1 µM.

On to `C=CC(=O)Nc1cc(Nc2nccc(-n3ccc4ccc(Cl)cc43)n2)c(OC)cc1N(C)CCN(C)C` [Compound 61, N-(5-(4-(6-chloro-1H-indol-1-yl)-pyrimidin-2-ylamino)-2-((2-(dimethylamino)ethyl)-methyl-amino)-4-methoxyl-phenyl)-acrylamide], for which the GI50 in the experiment on H1975 (EGFR L858R/T790M) is < 0.01 µM; in the experiment with HCC827 (EGFR dE746-A750), 0.01 to 0.1 µM; in the experiment with PC-9 (EGFR dE746-A750) it was 0.01 to 0.1 µM; in [1] it was < 0.01 µM; in the experiment with N87 (HER2 Amp) it was 0.1 to 1 µM; in the experiment on AU565 (Her2 amp), 0.1 to 1 µM. Further, the GI50 in the experiment with SK-BR-3 (Her2 amp) is 0.1 to 1 µM; in experiment [2] it was 0.1 to 1 µM; with A549 (EGFR WT) it was > 1 µM; in experiment [3] it was > 1 µM; in [4] it was > 1 µM.

On to `C=CC(=O)Nc1cc(Nc2nccc(N3CCc4ccccc43)n2)c(OC)cc1N(C)CCN(C)C` [Compound 31], for which the GI50 with H1975 (EGFR L858R/T790M) was 0.01 to 0.1 µM; in the experiment on HCC827 (EGFR dE746-A750) it was 0.01 to 0.1 µM; in the experiment on PC-9 (EGFR dE746-A750) it was 0.01 to 0.1 µM; in experiment [1], < 0.01 µM; in the experiment on N87 (HER2 Amp) it was 0.1 to 1 µM; with AU565 (Her2 amp), 0.1 to 1 µM. In addition, the GI50 in the experiment with SK-BR-3 (Her2 amp) was 0.1 to 1 µM; in experiment [2] it was 0.1 to 1 µM; in the experiment with A549 (EGFR WT), > 1 µM; in experiment [3] it was > 1 µM; in experiment [4], > 1 µM.

Regarding `C=CC(=O)Nc1cc(Nc2cc(Nc3ccc(F)c(Cl)c3)ncn2)c(OC)cc1OCCN(C)C` [Compound 148, N-(5-(6-(3-chloro-4-fluoro-phenylamino)-pyrimidin-4-ylamino)-2-(2-dimethylamino-ethoxyl)-4-methoxyl-phenyl)-acrylamide], the GI50 in the experiment on H1975 (EGFR L858R/T790M) was < 0.01 µM; in the experiment on HCC827 (EGFR dE746-A750), < 0.01 µM; in the experiment on PC-9 (EGFR dE746-A750), < 0.01 µM; in experiment [1] it was < 0.01 µM; with N87 (HER2 Amp) it was 0.01 to 0.1 µM; with AU565 (Her2 amp) it was < 0.01 µM. Moreover, the GI50 with SK-BR-3 (Her2 amp) was < 0.01 µM; in experiment [2], 0.01 to 0.1 µM; in the experiment on A549 (EGFR WT), > 1 µM; in [3] it was > 1 µM; in experiment [4] it was > 1 µM.

`C=CC(=O)Nc1cc(Nc2nccc(-n3cc(C)c4ccccc43)n2)c(OC)cc1N(C)CCN(C)C` [Compound 57, N-(5-(4-(3-methyl-1H-indol-1-yl)-pyrimidin-2-ylamino)-2-(2-(dimethylamino-ethyl)-methyl-amino)-4-methoxyl-phenyl)-acrylamide]: the GI50 fell in the range of 0.01 to 0.1 µM in the experiment on H1975 (EGFR L858R/T790M); 0.01 to 0.1 µM with HCC827 (EGFR dE746-A750); 0.1 to 1 µM in the experiment with PC-9 (EGFR dE746-A750); 0.01 to 0.1 µM in experiment [1]; 0.1 to 1 µM in the experiment on N87 (HER2 Amp); 0.1 to 1 µM with AU565 (Her2 amp). Moreover, the GI50 is 0.1 to 1 µM with SK-BR-3 (Her2 amp); 0.1 to 1 µM in experiment [2]; > 1 µM in the experiment with A549 (EGFR WT); > 1 µM in experiment [3]; > 1 µM in [4].
